Data: patent US8629116B2, “Method for inducing a TRIF-bias” (priority 2008, dated 2014)

Columns and labels:
[1] = test system: RAW264.7 siRNA cell lines; experiment: Cytokine production in stably transfected RAW264.7 siRNA (MyD88, TRIF, LUC) cell lines; format: cell-based, mouse; conditions: for potency for TNFα production: 20 hours
Procedure: Exponentially growing RAW264.7 cells are stably transfected with FuGene 6 by conventional methods in Optimem (Roche, Indianapolis Ind.) with psiRNA-mTICAM1, psiRNA-mMyD88, or psiRNA-LUC (irrelevant control) plasmids containing shRNA sequences for protein knockdown, a Zeocin resistance gene and a GFP coding sequence (InVivoGen, San Diego, Calif.). Transfection efficiency after selection is determined by percent GFP positive cells using the ImageStream.
RNA interference (RNAi) is utilized to disrupt expression of specific genes that are involved in TLR signaling pathways: […] and MyD88. RAW264.7 siRNA cell lines are prepared using commercially available plasmids (Invivogen). These plasmids contain a Zeocin selection marker, a sequence coding for GFP and the sequence coding for shRNA for knockdown. Once the cells are efficiently transfected, stable cell lines are generated through antibiotic selection. Purity of cultures is determined by GFP+ cells within the culture system. An irrelevant plasmid is also used to stably transfect cells as a control.
To determine whether TRIF or MyD88 are required for the cytokine response after stimulation with L and D isomers, stably transfected siRNA cell lines are stimulated for 20 hours (in an assay similar to the MM6 potency assay) or 4 hours (to capture MyD88 induced cytokine responses) and cellular supernatants are assayed for TNFα (MyD88) and IP-10 (TRIF). Twenty hours post-stimulation, the irrelevant control, LUC cell line has a similar IP-10 induction pattern as the wt RAW264.7 cells shown previously. […] When TRIF is intact (in MyD88 knockdown cell lines) the IP-10 levels remain dose responsive and total cytokine is increased above the irrelevant control (LUC). Other assay systems (including human and mouse systems) support the hypothesis that both L and D isomers are efficient at inducing TRIF mediated cytokines.
In order to better discriminate the MyD88 requirement for TNFα production, siRNA knockdown cell lines are examined for TNFα production after four hours of AGP stimulation (FIG. 35). […]

[2] = test system: human monocyte-derived dendritic cells; experiment: IL-12p70 and IL-23 induction in human monocyte-derived dendritic cells; format: cell-based
Procedure: Peripheral blood mononuclear cells (PBMCs) are isolated from the blood of healthy donors via a Ficoll Hypaque 1.077 gradient and treated with agonists or are used to isolate adherent monocytes in monocyte media (RPMI 1640 (ATCC), 10% human AB serum (Lonza/BioWhittaker), 100 U/mL penicillin/100 ug/mL streptomycin (Sigma), 50 uM 2-mercaptoethanol (Sigma) as described (Stover et al. 4440-49; Kawai et al. 5887-94; Gervassi et al. 7231-39). Monocyte-derived macrophages are produced by incubating adherent monocytes for 5 days in monocyte media with 50 ng/mL rhM-CSF (R&D Systems) with media changes at day 3 and day 5 before agonist treatment. Monocyte-derived dendritic cells (DC) are produced by incubating adherent monocytes for 7 days in monocyte media with 10 ng/mL rhGM-CSF and 10 ng/mL rhIL-4 (R&D Systems) with media changes on day 3 and day 6.
Induction of inflammatory cytokines and maturation of dendritic cells (DC) contribute to the promotion of a robust immune response during the administration of an adjuvanted vaccine. Therefore, the capacity of CRX527 and CRX-547 to induce IL-12p70 in human DCs is compared. The induction of IL-12p70 promotes the development of the Th1 helper T cell lineage and favors development of a cell-mediated immune response (Goriely, Neurath, and Goldman 81-86; Gutcher and Becher 1119-27). […]

SMILES | potency for TNFα production ([1]; MyD88 or TRIF knocked down) | potency at inducing TNFα versus equivalent dose of CRX-547 ([1]; four hours) | potency for TNFα production ([1]; irrelevant control (LUC)) | IL-23 expression ([2]; dendritic cells, compared with CRX-527) | IL-12p70 response ([2]; human monocyte-derived DC, compared to CRX-527 and LPS)
CCCCCCCCCCCC(CC(=O)NC(COC1OC(CO)C(OP(=O)(O)O)C(OC(=O)CC(CCCCCCCCCCC)OC(=O)CCCCCCCCC)C1NC(=O)CC(CCCCCCCCCCC)OC(=O)CCCCCCCCC)C(=O)O)OC(=O)CCCCCCCCC.CCN(CC)CC (centres unmarked) [CRX-527] | same increased potency | more potent | more potent | – | –
CCCCCCCCCCCC(CC(=O)NC(COC1OC(CO)C(OP(=O)(O)O)C(OC(=O)CC(CCCCCCCCCCC)OC(=O)CCCCCCCCC)C1NC(=O)CC(CCCCCCCCCCC)OC(=O)CCCCCCCCC)C(=O)O)OC(=O)CCCCCCCCC.CCN(CC)CC (centres unmarked) [CRX-547] | – | – | – | reduced virtually to base-line levels | significantly reduced
